Laboratory results reported in patent US8188296B2, “Gentisic acid for stabilising 123-I radiopharmaceuticals” (GE Healthcare Limited, priority 2005, dated 2012).

Columns and labels:
Assay type in all cases: physicochemical
[1] = Radiochemical purity (TLC) of 123I-IBZM solutions stored at ambient temperature, GA vs AA stabiliser (Example 1); conditions: at the moment of use; stabiliser named as label
Method: ^123I-IBZM was prepared by the method of Bobeldijk et al [J. Lab. Comp. Radiopharm., 28, 1247-1256 (1990)]. A small series of ^123I-IBZM solutions was prepared: to each vial 200 μl of ^123I-IBZM in EtOH (925 MBq/cm^3) was added and subsequently 2.3 ml of aqueous phosphate buffer solution optionally containing a stabiliser, in such a way that the resulting ethanol content was 8% and the radioactive concentration at calibration time was 74 MBq/cm^3 (2 mCi/ml).
The vials were stored at ambient temperature and the radiochemical purity (RCP) was determined by thin layer chromatography (TLC) at the time of dilution with phosphate buffer and at 24 and 48 hours afterwards.

[2] = Discolouration / heat sterilisation stability of stabiliser stock solutions
From the text: A preferred biocompatible carrier medium for the stabiliser stock solution comprises an aqueous solution at a pH suitable for intravenous administration. A preferred such aqueous solution is a buffer solution, most preferably phosphate buffer. When the radiopharmaceutical is ^123I-IBZM, the pH of the buffered stock solution is suitably pH 5 to 8, preferably 5.4 to 7, most preferably 5.7 to 6.3. As noted above, gentisic acid solutions tend to suffer from discoloration problems. […] The stock solutions may be prepared under non-sterile conditions, followed by terminal sterilisation using e.g. gamma-irradiation, autoclaving, dry heat or chemical treatment (e.g. with ethylene oxide). Alternatively, the stock solutions may be prepared under aseptic manufacture conditions to give the desired sterile, pyrogen-free product. Preferably the sterile stock solutions are prepared by terminal sterilisation, most preferably by autoclaving. Such autoclaving involves steam heating at over 121° C., so represents stress conditions wherein unwanted chemical reactions might be expected. […] It is therefore surprising that the lack of discolouration for gentisic acid can be maintained under such conditions.

[3] = Radiochemical purity of 123I-IBZM solutions made with autoclaved stabiliser stock solutions (Example 3); conditions: stock solution sterilised in an autoclave at 121 °C
Method: Stock solutions of the stabilisers shown were prepared, purged with argon gas and then sealed under argon in a septum-sealed vial with a Teflon™ coated rubber stopper.
The solutions were sterilised by autoclaving for 15 minutes at 121° C., and then allowed to cool to ambient temperature before use.
A small series of ^123I-IBZM solutions was prepared: to each vial ^123I-IBZM in EtOH (925 MBq/cm^3) was added and subsequently an aqueous phosphate buffer solution containing a stabiliser as specified in Table 3 (below), in such a way that the resulting ethanol content was 8% and the radioactive concentration at calibration time was 74 MBq/cm^3 (2 mCi/ml). The RCP of each vial was determined 3 hours after preparation and after storage at room temperature for 51 hours.

[4] = Radiochemical purity of 123I-IBZM vs gentisic acid concentration in stock solution (Example 4, FIG. 1); conditions: 0 to 0.39% w/v gentisic acid, pH 5.8, 74 MBq/ml, room temperature
Method: A phosphate buffer solution (300 ml) was divided into 6 vials each of 50 ml with various amounts of gentisic acid, corresponding to w/v concentrations of 0%, 0.024%, 0.050%, 0.10%, 0.20% and 0.39%. The pH was checked, and if necessary adjusted by the addition of NaOH to obtain a pH of 5.8 (±0.1). The vials were stoppered with Teflon™ coated rubber stoppers and sterilised for 15 min at 121° C.
An ethanolic solution of ^123I-IBZM (activity concentration at REF: 925 MBq/ml (25 mCi/ml)) was divided over 6 vials and into each was added an aliquot of the 6 gentisic acid buffer solutions from step (a) to obtain a final solution with a total activity content of 185 MBq (5 mCi), at a RAC of 74 MBq/ml (2 mCi/ml) and an ethanol content of 8%. The vials were stoppered with a Teflon™ coated rubber stopper and stored at room temperature. The RCP was measured at various time points after EOS.

[5] = Radiochemical purity of 123I-mIBG in phosphate buffer with stabilisers (Example 5); conditions: compared with benzyl alcohol
Method: Two series of 5 vials of ^123I-mIBG solutions were prepared: to each vial an aliquot of 0.5 cm^3 of freshly prepared ^123I-mIBG in (stabiliser-free) Phosphate buffer (360 MBq/cm^3) was added and subsequently an aliquot of 2.0 cm^3 of an aqueous phosphate buffer solution containing a stabiliser as specified in Table 4 (below), followed by mixing. The final mixtures were not heat sterilized. The total activity per vial was 185 MBq with an RAC of 74 MBq/ml. The specific activity was 992 GBq/g mIBG base. Vials A1 to E1 were stored at 40° C. and vials A2 to E2 at 20° C. The RCP was determined at the EOS (end of synthesis) and at 3, 20 and 45 hours thereafter.

Structure (SMILES)	principal radiochemical impurity (free 123I-iodide) in the 123I-IBZM preparation [1] [%]	stability to heat sterilisation (autoclaving, over 121 °C) in buffer solution ([2]; buffer solution)	stabilisation of 123I-IBZM (in words) [3]	stabilisation of 123I-IBZM vs stabiliser concentration (in words) [4]	stabilisation of 123I-MIBG (in words) [5]	discolouration of sterile solutions in aqueous buffer on storage ([2]; oxygen gas in the environment minimised)	discolouration of solutions on autoclave sterilisation ([2]; oxygen not excluded, autoclave)
O=C1O[C@H]([C@@H](O)CO)C(O)=C1O [ascorbic acid, reference compound]	4 to 5	does not withstand such heat sterilisation in buffer solution					
O=C(O)c1cc(O)ccc1O [gentisic acid, 2,5-dihydroxybenzoic acid]	2 to 3		still an effective stabiliser	little or no additional stabilisation benefit is obtained	effective at much lower concentrations than benzyl alcohol	do not discolour even on storage for more than a year	visible discolouration does occur
